This note sets out measurements from US10369123B2, “Perk activator for the treatment of neurodegenerative diseases” (DEUTSCHES ZENTRUM FÜR NEURODEGENERATIVE ERKRANKUNGEN E.V. …, priority 2014, dated 2019).

The data set concerns the target T1, PERK (Mus musculus, UniProt Q9Z2B5).
T1 construct: from tissue; host or cells: mouse brain (C57BL/6 wild type; whole brain homogenates / frontal cortex)
T1 sequence (Q9Z2B5 29-1114): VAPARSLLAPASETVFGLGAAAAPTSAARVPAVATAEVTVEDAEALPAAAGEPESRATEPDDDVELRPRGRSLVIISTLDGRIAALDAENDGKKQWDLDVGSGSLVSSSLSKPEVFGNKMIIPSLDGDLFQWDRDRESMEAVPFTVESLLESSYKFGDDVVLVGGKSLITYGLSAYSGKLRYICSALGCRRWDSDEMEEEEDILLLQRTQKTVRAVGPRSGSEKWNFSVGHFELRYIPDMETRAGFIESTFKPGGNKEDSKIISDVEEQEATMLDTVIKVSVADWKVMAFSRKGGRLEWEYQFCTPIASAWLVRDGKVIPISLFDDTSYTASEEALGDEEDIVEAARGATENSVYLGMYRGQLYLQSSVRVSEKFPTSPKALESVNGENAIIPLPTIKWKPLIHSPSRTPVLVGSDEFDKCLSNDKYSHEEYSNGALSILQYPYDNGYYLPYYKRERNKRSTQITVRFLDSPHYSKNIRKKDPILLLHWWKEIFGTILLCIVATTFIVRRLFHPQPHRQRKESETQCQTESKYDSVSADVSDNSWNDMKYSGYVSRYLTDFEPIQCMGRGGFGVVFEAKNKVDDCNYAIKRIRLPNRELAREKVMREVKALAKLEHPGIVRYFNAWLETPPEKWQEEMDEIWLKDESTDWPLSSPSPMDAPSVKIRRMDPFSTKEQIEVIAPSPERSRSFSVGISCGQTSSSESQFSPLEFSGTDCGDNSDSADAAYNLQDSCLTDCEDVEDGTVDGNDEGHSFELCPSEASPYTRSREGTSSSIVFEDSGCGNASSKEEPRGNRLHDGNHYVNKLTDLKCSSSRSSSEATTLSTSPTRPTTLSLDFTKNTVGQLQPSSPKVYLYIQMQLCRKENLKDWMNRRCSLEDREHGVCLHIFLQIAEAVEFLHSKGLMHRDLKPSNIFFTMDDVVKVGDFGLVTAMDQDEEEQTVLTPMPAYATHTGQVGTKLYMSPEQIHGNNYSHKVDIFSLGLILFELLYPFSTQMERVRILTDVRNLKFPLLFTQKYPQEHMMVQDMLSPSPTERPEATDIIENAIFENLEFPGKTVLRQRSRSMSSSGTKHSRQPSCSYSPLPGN
As to the kind of experiment: Target engagement: Western blots of whole brain homogenates after intraperitoneal administration. Type of data set: in vivo. As to the method:
All animal work was conducted either on CR57BL/6 mice, obtained from Charles River Laboratories, Wilmington, Mass., USA, or on homozygous transgenic mice overexpressing human tau with the P301S mutation on a C57BL/6 background, originally developed by Michel Goedert (Xu et al. 2014), obtained by own breeding. Animals were kept at 23±1° C. under standard 12 h light-dark cycle with free access to food and water. They were handled according to the EU Council Directive 2010/63/EU, the Guide for the Care and Use of Laboratory Animals (National Research Council 2011) and the guidelines of the local institutional committee. The experiments were authorized by the local authority “Regierung von Oberbayern” under application number 55.2-1-54-2532-165-13.
5 mg of the PA compound CCT020312 (EMD Millipore, Billerica, Mass., USA) was first dissolved in 100 μl sterile DMSO (AppliChem, Darmstadt, Germany) and then diluted in sterile saline (B. Braun Medical, Melsungen, Germany) to achieve a stock solution of […].
For the initial short-term single-dose target-engagement trial, wild type mice were treated on three consecutive days with either 2 mg/kg of CCT020312 or saline of the equivalent volume by intraperitoneal injection. They were sacrificed by cervical dislocation four hours after the last injection.
For the short-term ascending-dose target-engagement trial, wild type mice at 15 weeks of age were treated on three consecutive days with once daily intraperitoneal (i.p.) injections of either 1, 2, or 5 mg/kg of CCT020312 or equivalent volumes of saline.
For the long-term single-dose target-engagement trial, wild type mice (n=3) at 9 weeks of age were treated for 6 weeks with once daily i.p. injections of either 2 mg/kg of CCT020312 or equivalent volumes of saline.
Mice were sacrificed by cervical dislocation twelve hours after the last injection. Their brains were frozen on dry ice and stored at −80° C. for Western blot analysis.
Frontal cortex tissue was dissected from the fresh-frozen sample on dry ice and suspended in 750 μl of T-PER Tissue Protein Extraction Reagent (Thermo Fisher Scientific) and 1× cOmplete Protease Inhibitor Cocktail Tablets (Hoffmann-La Roche) and 1× PhosSTOP Phosphatase Inhibitor Cocktail Tablets (Hoffmann-La Roche). The tissue piece was initially ground with a pestle inside a microcentrifuge tube on ice and then homogenized by sonification with Branson Sonifier 450 Analog (Branson, now Thermo Fisher Scientific) with 10×500 ms bursts at intensity level 3 on ice. The solution was then centrifuged at 5000 g for 15 minutes at 4° C. and the supernatant retrieved. Protein concentrations were determined using the BCA kit (Thermo Fisher Scientific) by heating the samples at 60° C. for 30 minutes and measuring the absorption on the NanoDrop 2000c spectrophotometer (Thermo Fisher Scientific).
20 μg of protein (200 μg for pPERK blots) were adjusted to equal concentrations between samples by dilution with M-PER and subsequently heated at 95° C. for 5 minutes with Roti®-Load 1 (Carl Roth). SDS-PAGE was performed using Any kD™ Mini-PROTEAN® TGX™ Gels (BioRad, Berkeley, Calif., USA) in a tris-glycine running buffer. The protein was blotted onto PVDF membrane (BioRad) at 70 V for 65 minutes whilst being cooled with ice. The membrane was blocked with 1× Roti®-Block solution (Carl Roth) for 1 h and then incubated at 4° C. overnight under gentle shaking with the primary antibody (see Table 6) in TBS with 5% BSA (Cell Signaling Technology) and 0.05% TWEEN (Sigma-Aldrich). The membranes were then washed and incubated with the species specific HRP-bound secondary antibody (Vector Laboratories, Burlingame, Calif., USA) at 1:2500 in 1× Roti®-Block solution for 2 h, followed by further washing and exposure to Clarity Western ECL Substrate (BioRad) or, in the case of MC1, to Amersham™ ECL™ Prime (GE Healthcare). […]

[1] abbreviates: wild type mice, 2 mg/kg i.p. once daily for 6 weeks, 2 mg/kg.
Setting [2] is: wild type mice, 1, 2 or 5 mg/kg i.p. once daily, three days.

Entries after “also recorded” stand apart in the source; their conditions may differ.

For `CCN(CC)CCC(=O)N1N=C(c2c(-c3ccccc3)c3cc(Br)ccc3[nH]c2=O)CC1c1ccc(Br)cc1` (stereo not drawn) [CCT020312, 6-bromo-3-[5-(4-bromo-phenyl)-1-(3-diethylamino-propionyl)-4,5-dihydro-1H-pyrazol-3-yl]-4-phenyl-1H-quinolin-2-one], the brain penetration result (mice, intraperitoneal, inferred from brain pEIF2A) is “enters the brain”. Besides, where the note is “wild type mice, 2 mg/kg i.p. once daily for 6 weeks, vs saline, 2 mg/kg”, the “pPERK in the brain” value is on record as “increase; also recorded: significantly increased”. Besides, under setting [1], the “pNRF2 level in the brain” value is on record as “significant increase; also recorded: significantly increased”, the “total NRF2 levels in the brain” value is recorded as “without significant change; also recorded: no significant upregulation” and the “total PERK level in the brain” value is given as “no obvious change; also recorded: no significant upregulation”. In addition, the “pEIF2A in whole brain extracts” value (wild type mice, 2 mg/kg i.p. once daily, three days, vs saline) is given as “marked increase”. Under setting [2], the “pNRF2 level in brain” value is on record as “dose-dependent increase” and the “total NRF2 in brain” value was “without significant change”. Further, the “phosphorylated PERK in whole brain extracts” value (wild type mice, 1, 2 or 5 mg/kg i.p. once daily, three days, vs saline) was “marked increase; also recorded: significantly increased”.
